Laboratory results as given in patent publication US11952587B2, “Method for producing platelets” (KYOTO UNIVERSITY, priority 2017, dated 2024).

Columns and labels:
imMKCL [1] = assay: HDAC6 inhibitor addition in shaking flask culture: number of platelets; format: cell-based, human; settings: for number of platelets produced: added in a concentration of 100 nM or more to a medium
Procedure: After turning genes (c-MYC, BMI1, and BCL-XL) off, 1×10^5 cells/ml of imMKCL was seeded in a flask to carry out shaking flask culture using a platelet producing medium. The culture was carried out under the shaking conditions of 100 rpm, 37° C., and 5% CO2. To the platelet producing medium, BML-281 1 nM, 10 nM, or 100 nM, or Nexturastat A 20 nM was added as an HDAC6 inhibitor at the time of starting the culture. […] The number of platelets was measured on Day 6 after addition of these HDAC6 inhibitors.
(§1) After turning genes (c-MYC, BMI1, and BCL-XL) off, 1×10^5 cells/ml of imMKCL was seeded in a flask to carry out shaking flask culture using a platelet producing medium under a shaking condition of 100 rpm. Further, after turning genes (c-MYC, BMI1, and BCL-XL) off, 1×10^5 cells/ml of imMKCL was seeded in a culture dish to carry out static culture. For both shaking culture and static culture, BML-281 100 nM, or Nexturastat A 500 nM, 1 μM, or 2 μM was added at the time of starting the cultures. The number of platelets was measured on Day 6 from addition of these HDAC6 inhibitors. Additionally, Annexin V positive ratios of the obtained platelets were measured.
(§2) Subsequently, in order to examine in more detail which process in megakaryocyte maturation is affected by the HDAC6 inhibitor, the timing of adding Nexturastat A 2 μM during the flask culture was changed to Day 3, Day 4, and Day 5 from the start of the culture after the gene off and the effect on the amount of platelets to be produced was studied. Culture conditions other than the timing of adding HDAC6 inhibitors were the same as those in the experiment referring to FIGS. 21 to 24. […] In FIG. 24, panel (c), PPF was recognized at Day 5 in static culture. In view of this, the effect available at the time of shedding platelets (presumed mechanism) seems to be about 40%.

imMKCL [2] = assay: HDAC6 inhibitor addition in static culture (Dish): number of platelets; format: cell-based, human
Procedure: as §1, §2

imMKCL [3] = assay: HDAC6 inhibitor addition in static culture: cell morphology by microscope; format: cell-based, human; settings: for degree of hypertrophy: versus DMSO group; for cell morphology (apoptosis, hypertrophy): Day 3 from gene off; for PPF associated with megakaryocyte maturation: Day 5 from gene off
Procedure: To confirm if apoptosis was caused due to the drug addition, cell morphology was observed when dimethyl sulfoxide (DMSO) was used as a solvent control of the drug or an HDAC6 inhibitor was added at the time of starting the culture in the platelet producing medium in a static culture under the same conditions as above. […] In the photograph, cell hypertrophy associated with megakaryocyte maturation is observed. […] PPF associated with megakaryocyte maturation is recognized. FIG. 24, panels (e) and (f) show cell morphology on Day 5 from the gene off static culture to which BML-281 100 nM was added and to which Nexturastat A 2 μM was added, respectively. […] Additionally, when an HDAC6 inhibitor was added, the degree of megakaryocyte maturation is rather hindered but proceeds to hypertrophy. Based on the above findings, HDAC6, seems to have role in the proplatelet formation.

HDAC6 = molecular target: T1, HDAC6 (Homo sapiens, UniProt Q9UBN7); settings: cited from earlier work
T1 sequence (Q9UBN7 1-1215): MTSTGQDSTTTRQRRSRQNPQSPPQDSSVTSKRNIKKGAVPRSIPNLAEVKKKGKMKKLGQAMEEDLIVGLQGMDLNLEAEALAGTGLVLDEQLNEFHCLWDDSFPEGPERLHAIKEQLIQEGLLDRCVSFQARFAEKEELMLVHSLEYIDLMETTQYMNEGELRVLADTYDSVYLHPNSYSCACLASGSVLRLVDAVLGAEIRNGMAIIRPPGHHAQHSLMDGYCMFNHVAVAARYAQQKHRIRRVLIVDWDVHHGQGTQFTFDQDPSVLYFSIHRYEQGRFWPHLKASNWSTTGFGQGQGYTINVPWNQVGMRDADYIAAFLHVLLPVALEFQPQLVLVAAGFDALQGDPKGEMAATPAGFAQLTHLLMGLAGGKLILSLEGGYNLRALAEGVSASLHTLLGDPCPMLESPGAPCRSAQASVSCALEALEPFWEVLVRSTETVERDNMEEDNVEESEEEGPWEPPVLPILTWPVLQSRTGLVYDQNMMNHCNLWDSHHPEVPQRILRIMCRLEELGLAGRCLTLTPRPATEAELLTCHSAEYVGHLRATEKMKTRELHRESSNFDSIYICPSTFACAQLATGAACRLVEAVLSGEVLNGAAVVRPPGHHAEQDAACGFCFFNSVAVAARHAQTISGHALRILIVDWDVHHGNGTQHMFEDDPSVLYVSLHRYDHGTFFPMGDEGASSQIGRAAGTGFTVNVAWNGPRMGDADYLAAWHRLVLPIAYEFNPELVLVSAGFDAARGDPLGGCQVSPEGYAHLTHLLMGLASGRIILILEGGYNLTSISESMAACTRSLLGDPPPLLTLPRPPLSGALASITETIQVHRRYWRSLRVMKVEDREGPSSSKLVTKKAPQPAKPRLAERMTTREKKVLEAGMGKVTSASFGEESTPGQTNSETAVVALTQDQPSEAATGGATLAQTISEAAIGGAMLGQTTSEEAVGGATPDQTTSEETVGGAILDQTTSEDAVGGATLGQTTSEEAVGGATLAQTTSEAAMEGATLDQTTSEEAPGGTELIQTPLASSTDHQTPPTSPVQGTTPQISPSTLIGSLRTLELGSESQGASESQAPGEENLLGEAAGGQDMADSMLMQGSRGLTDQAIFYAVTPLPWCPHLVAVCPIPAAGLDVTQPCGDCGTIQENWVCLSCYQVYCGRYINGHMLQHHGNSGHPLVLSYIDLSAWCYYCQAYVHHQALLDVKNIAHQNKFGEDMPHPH

Structure (SMILES) | number of platelets produced (imMKCL [1]) | number of platelets produced on Day 6, concentration dependence (imMKCL [1]; shaking flask culture, 500 nM, 1 μM, or 2 μM added at start) | platelet production (number of platelets on Day 6) (imMKCL [1]; shaking flask culture, 2 μM added) | platelet production (imMKCL [1]; shaking flask culture, 2 μM added on Day 0 or Days 3 and 4 after gene off) | platelet production (imMKCL [1]; shaking flask culture, 2 μM added on Day 5 after gene off) | reduction of number of platelets produced (imMKCL [2]; static culture (Dish), 2 μM added on Day 5) | number of platelets produced on Day 6, concentration dependence (imMKCL [2]; static culture, 500 nM, 1 μM, or 2 μM added at start) | degree of hypertrophy (imMKCL [3]; Day 3, 2 μM) | cell morphology (apoptosis, hypertrophy) (imMKCL [3]; 2 μM) | PPF associated with megakaryocyte maturation (imMKCL [3]; 2 μM) | known HDAC inhibition (HDAC6) | platelet production (number of platelets on Day 6) (imMKCL [1]; shaking flask culture, 100 nM added at start of culture) | degree of hypertrophy (imMKCL [3]; Day 3, 100 nM) | cell morphology (apoptosis, hypertrophy) (imMKCL [3]; 100 nM) | PPF associated with megakaryocyte maturation (imMKCL [3]; 100 nM)
CCCCN(Cc1ccc(C(=O)NO)cc1)C(=O)Nc1ccccc1 [Nexturastat A, 4-[[Butyl[(phenylamino)carbonyl]amino]methyl]-N-hydroxybenzamide] | considerably suppress the number of platelets produced | decreases in an inhibitor concentration-dependent manner | notable reduction in the platelet production | notable reduction in the platelet production | production equivalent to that in non-addition group | about 40% | decreases in an inhibitor concentration-dependent manner | slightly lower than the group containing DMSO | Apoptosis was not recognized but cell hypertrophy was observed | not recognized | specifically inhibit HDAC6 |  |  |  | 
CC(C)(C)OC(=O)Nc1ccc(-c2cc(C(=O)NCCCCCCC(=O)NO)no2)cc1 [BML-281, N-Hydroxy-7-[5-(4-tertbutoxycarbonylaminophenyl)-3-isoxazolecarboxamido]heptanamide] | considerably suppress the number of platelets produced |  |  |  |  |  |  |  |  |  | inhibit HDAC6, 1, 2, 7, 8, and 10 | notable reduction in the platelet production | slightly lower than the group containing DMSO | Apoptosis is not recognized but cell hypertrophy is recognized | not recognized
